Active and inactive are the calls of the source. The calls are words filed in the database; no cut-off is given here.
Key:
[1] = Toxicity in Drosophila melanogaster Oregon R-positive assessed as reduction in eclosed flies at 40 uM measured for 15 days relative to control; design: scale not given: the % may be the effect or the level left; settings: 360 h, time 15 day
Acetylcholinesterase [2] = target: T1, Acetylcholinesterase (Homo sapiens, UniProt P22303); test: Inhibition of human recombinant AChE expressed in HEK293 cells using acetylthiocholine iodide as substrate preincubated with compound for 30 mins followed by substrate addition and measured after 30 mins by DTNB reagent based Ellman's method
T1 sequence (P22303 whole entry): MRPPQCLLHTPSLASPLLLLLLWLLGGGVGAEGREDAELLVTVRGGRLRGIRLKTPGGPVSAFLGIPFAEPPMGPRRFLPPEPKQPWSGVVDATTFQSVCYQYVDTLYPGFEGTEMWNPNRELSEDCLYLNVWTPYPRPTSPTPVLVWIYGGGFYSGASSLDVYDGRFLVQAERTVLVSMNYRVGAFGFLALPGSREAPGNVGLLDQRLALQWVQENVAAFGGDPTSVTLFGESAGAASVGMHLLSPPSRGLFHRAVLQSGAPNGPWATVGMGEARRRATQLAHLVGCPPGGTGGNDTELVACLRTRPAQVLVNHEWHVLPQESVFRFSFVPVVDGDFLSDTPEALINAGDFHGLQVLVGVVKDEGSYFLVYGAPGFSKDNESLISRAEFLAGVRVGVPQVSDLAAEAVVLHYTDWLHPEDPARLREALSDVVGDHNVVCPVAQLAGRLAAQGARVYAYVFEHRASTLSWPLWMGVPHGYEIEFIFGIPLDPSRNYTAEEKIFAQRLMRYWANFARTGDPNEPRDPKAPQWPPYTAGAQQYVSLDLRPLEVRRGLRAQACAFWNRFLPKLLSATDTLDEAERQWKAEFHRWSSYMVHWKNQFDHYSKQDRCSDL

Mus musculus [3] = test: Neuroprotective activity against scopolamine-induced Swiss albino mouse model assessed as increase in NR4A2 mRNA level at 0.3 to 0.5 mg/kg, po measured after 6 days by RT-PCR analysis; assay type: functional, organism-based; settings: dose 0.3-0.5 mg/kg, time 6.0 day
Mus musculus [4] = test: Neuroprotective activity against scopolamine-induced Swiss albino mouse model assessed as effect on GAP43 mRNA level at 0.3 to 0.5 mg/kg, po measured after 6 days by RT-PCR analysis; assay type: functional, organism-based; settings: dose 0.3-0.5 mg/kg, time 6.0 day
Mus musculus [5] = test: Neuroprotective activity against scopolamine-induced Swiss albino mouse model assessed as increase in CREB1 mRNA level at 0.3 to 0.5 mg/kg, po measured after 6 days by RT-PCR analysis; assay type: functional, organism-based; settings: dose 0.3-0.5 mg/kg, time 6.0 day
Drosophila melanogaster [6] = test: Anti-alzheimer activity in ey-GAL4 driven UAS-amyloid beta (1 to 42) induced Drosophila melanogaster Oregon R-positive assessed as severe eye phenotype at 10 to 20 uM by Stereo zoom microscopic imaging analysis relative to control; assay type: functional; settings: dose 10-20 µM
Mus musculus [7] = test: Neuroprotective activity against scopolamine-induced Swiss albino mouse model assessed as increase in C-FOS mRNA level at 0.3 to 0.5 mg/kg, po measured after 6 days by RT-PCR analysis; assay type: functional, organism-based; settings: dose 0.3-0.5 mg/kg, time 6.0 day
Drosophila melanogaster [8] = test: Anti-alzheimer activity in ey-GAL4 driven UAS-amyloid beta (1 to 42) induced Drosophila melanogaster Oregon R-positive assessed as increase in superoxide level at 10 to 20 uM by fluorescence based analysis; assay type: functional, organism-based; settings: dose 10-20 µM
Drosophila melanogaster [9] = test: Anti-alzheimer activity in ey-GAL4 driven UAS-amyloid beta (1 to 42) induced Drosophila melanogaster Oregon R-positive assessed as rescued eye phenotype at 10 to 20 uM by Stereo zoom microscopic imaging analysis relative to control; assay type: functional; settings: dose 10-20 µM
Mus musculus [10] = test: Antialzheimer activity in scopolamine-induced Swiss albino mouse model assessed as decrease in escape latency at 0.3 to 0.5 mg/kg, po preincubated with compound for 30 mins followed by scopolamine induction and measured after 5 days by Morris water maze test; assay type: functional, organism-based; settings: dose 0.3-0.5 mg/kg, time 7230.0 min
[11] = Metal chelating activity assessed as compound-Fe2+ complex formation by measuring increase in absorption intensity at 300 uM in presence of by UV-vis spectrometry
Acetylcholinesterase [12] = target: T1, Acetylcholinesterase; test: Displacement of propidium iodide from human AChE PAS assessed as reduction in fluorescence intensity at 5 uM incubated for 6 hrs by fluorescence based analysis relative to control; design: scale not given: the % may be the effect or the level left
PC-12 = test: Induction of apoptosis in rat PC-12 cells assessed as viable cells at 10 uM incubated for 24 hrs by Annexin V/PI staining based flow cytometry analysis (reference value: 82.8%); assay type: functional; settings: read-out: Activity
Mus musculus [13] = test: Antioxidant activity against scopolamine-induced Swiss albino mouse model assessed as increase in catalase level in brain at 0.3 to 0.5 mg/kg, po by absorbance based analysis; assay type: functional, organism-based; settings: dose 0.3-0.5 mg/kg
Mus musculus [14] = test: Antialzheimer activity in scopolamine-induced Swiss albino mouse model assessed as reduction in AChE level at 0.3 to 0.5 mg/kg, po preincubated with compound for 30 mins followed by scopolamine induction and measured after 30 mins; assay type: functional, organism-based; settings: dose 0.3-0.5 mg/kg, time 1.0 hrs
Drosophila melanogaster [15] = test: Anti-alzheimer activity in ey-GAL4 driven UAS-amyloid beta (1 to 42) induced Drosophila melanogaster Oregon R-positive assessed as rescued eye phenotype at 50 uM by Stereo zoom microscopic imaging analysis relative to control; assay type: functional
Acetylcholinesterase [16] = target: T1, Acetylcholinesterase; test: Displacement of propidium iodide from human AChE PAS assessed as reduction in fluorescence intensity at 0.01 uM incubated for 6 hrs by fluorescence based analysis relative to control; design: scale not given: the % may be the effect or the level left
Mus musculus [17] = test: Antioxidant activity against scopolamine-induced Swiss albino mouse model assessed as increase in MDA level at 0.3 to 0.5 mg/kg, po by absorbance based analysis; assay type: functional, organism-based; settings: dose 0.3-0.5 mg/kg
[18] = Acute toxicity in Swiss albino mouse assessed as convulsion at 175 mg/kg, po administered for 14 days; assay type: organism-based; settings: in vivo, 336 h, time 14 day
[19] = Permeability of the compound across blood brain barrier; assay type: ADME; settings: read-out: BBB
Drosophila melanogaster [20] = test: Anti-alzheimer activity in ey-GAL4 driven UAS-amyloid beta (1 to 42) induced Drosophila melanogaster Oregon R-positive assessed as severe eye phenotype at 40 uM by Stereo zoom microscopic imaging analysis relative to control; assay type: functional
[21] = Metal chelating activity assessed as compound-Cu2+ complex formation by measuring increase in absorption intensity at 300 uM in presence of by UV-vis spectrometry
[22] = target: Cholinesterase (Equus caballus) (UniProt P81908); test: Reversible binding affinity to equine serum BChE using acetylthiocholine iodide as substrate assessed as binding constant preincubated for 40 mins by DTNB reagent based Ellman's method
Sequence of Cholinesterase (Equus caballus) (P81908 whole entry): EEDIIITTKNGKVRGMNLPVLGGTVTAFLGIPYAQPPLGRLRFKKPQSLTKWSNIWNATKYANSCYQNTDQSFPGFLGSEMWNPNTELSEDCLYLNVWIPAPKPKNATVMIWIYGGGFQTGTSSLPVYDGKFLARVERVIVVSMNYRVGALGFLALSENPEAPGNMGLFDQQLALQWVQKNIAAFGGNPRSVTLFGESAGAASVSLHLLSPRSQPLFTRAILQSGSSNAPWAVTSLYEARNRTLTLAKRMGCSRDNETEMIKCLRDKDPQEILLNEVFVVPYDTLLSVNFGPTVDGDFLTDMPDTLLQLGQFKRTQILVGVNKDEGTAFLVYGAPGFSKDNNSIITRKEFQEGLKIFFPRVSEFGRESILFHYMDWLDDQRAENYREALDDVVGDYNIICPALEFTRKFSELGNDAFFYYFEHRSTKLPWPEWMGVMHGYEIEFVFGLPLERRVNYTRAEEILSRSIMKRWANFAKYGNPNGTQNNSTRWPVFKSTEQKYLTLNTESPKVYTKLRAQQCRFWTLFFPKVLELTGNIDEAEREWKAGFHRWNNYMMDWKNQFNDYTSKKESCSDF

SMILES: C[C@@H](c1cccc(OC(=O)NCCc2c[nH]c3ccc(Cl)cc23)c1)N(C)C
- Activity [1]: 20%
- IC50 (Acetylcholinesterase [2]): 7.97 nM
- Activity (Mus musculus [3]): Active
- Activity (Mus musculus [4]): Active
- Activity (Mus musculus [5]): Active
- Activity (Drosophila melanogaster [6]): 20%
- Activity (Mus musculus [7]): Active
- Activity (Drosophila melanogaster [8]): Active
- Activity (Drosophila melanogaster [9]): 36%
- Activity (Mus musculus [10]): Active
- Activity [11]: inactive
- Activity (Acetylcholinesterase [12]): 21.9%
- viability at 10 µM (PC-12): 55.3%
- Activity (Mus musculus [13]): Active
- Activity (Mus musculus [14]): Active
- Activity (Drosophila melanogaster [15]): 23%
- Activity (Acetylcholinesterase [16]): 1.37%
- Activity (Mus musculus [17]): Active
- Activity [18]: Non-toxic
- Papp [19]: 13 ×10⁻⁶ cm/s
- Activity (Drosophila melanogaster [20]): 16%
- Activity [21]: inactive
- K [22]: 0.035 min⁻¹

— ChEMBL document CHEMBL6074689 (Eur J Med Chem, 2025)
